Source: patent US20110009489A1, “COSMETIC COMPOSITION COMPRISING VITAMIN U AS ACTIVE INGREDIENT FOR HEALING WOUNDS AND REDUCING WRINKLES” (CUSKIN CO., LTD., priority 2008, published 2011)

Legend:
[1] = system: human epidermal keratinocytes; conditions: vitamin U 10^−2, 10^−3, 10^−4 M, 1/10 growth factor, scratch; vs control not treated with vitamin U
Method: The following experiment was performed to investigate if vitamin U could increase the movement of human epidermal keratinocytes (hereinafter hEK) in vitro. The basic culture medium was obtained fromDefined Keratinocyte-SFM (Gibco, USA) with Defined Keratinocyte-SFM Growth supplement and growth factors. For the experiment, such an amount of 1/10 growth factor and vitamin U were added that the final concentrations of vitamin U should be 10^−2, 10^−3, and 10^−4 M. In the meantime, vitamin-free medium containing 1/10 growth factor was used for the control.
Human keratinocytes were cultured in a 6-well culture dish until the cells were grown at least 90% confluent. The cells were scratched out by using 2 mm micro tip. The fallen-off cells were washed out with PBS, followed by culture in another experimental medium.

gastric mucosa [2] = conditions: rabbit, vitamin U administered; cited from earlier work
gastric mucosa [3] = conditions: pig, vitamin U administered; cited from earlier work
human dermal fibroblasts = conditions: vitamin U 10^−2 or 10^−3 M, DMEM with 1% FBS, scratch; vs control not treated with vitamin
Method: The medium used for the wound healing experiment was obtained from DMEM with 1% FBS. Such an amount of vitamin U was added that the final vitamin U concentration should be 10^−2 or 10^−3 M. In the meantime, vitamin-free medium containing 1% FBS was used for the control.
Human fibroblasts were cultured in a 6-well culture dish until the cells were grown at least 90% confluent. The cells were scratched out by using 2 mm micro tip. The fallen-off cells were washed out with PBS, followed by culture in another experimental medium. Then, it was observed by photograph how many cells migrate into the room between scratches.

collagenase mRNA = conditions: mouse, in vivo
Method: (§1) An experiment on Inhibitory effect on collagenase of the cosmetic composition containing vitamin U of the present invention was carried out. The experiment was carried for 4 weeks with the Atrichia mice divided into two groups, each of which is composed of 10 mice. Vitamin U containing cosmetic formula, prepared in cream with 10% vitamin U, was applied onto the back skin of the experimental group mouse every day. In the meantime, vitamin U-free ordinary formula was applied on the control. 4 weeks later, back skin was picked from both groups. RNA was extracted from the skin tissues, followed by real-time PCR to investigate the transcription level of collagenase mRNA (FIG. 8).

collagen = conditions: mouse, in vivo
Method: as §1

For CS.CSCCC(N)C(=O)O.Cl (racemic) [vitamin U, DL-methionine methylsulfonium chloride], the migration of keratinocytes [1] is given as “much more increased”, the “mucin secretion of gastric mucosa” value (gastric mucosa [2]) is given as “increased” and the “ulcer of gastric mucosa” value (gastric mucosa [3]) is given as “suppressed”. For the same molecule, the migration of fibroblasts (human dermal fibroblasts) was “much more increased”, the “collagenase mRNA transcription” value (collagenase mRNA) was “significant inhibition” and the “collagen (Western blotting)” value (collagen) was “increase of collagen”.
